Residues, ends and D or L forms follow the SMILES beside them. *: point of attachment. Boc = CC(C)(C)OC(=O)*
How the values were obtained:
[1] = target: T1, human Factor XIa (Homo sapiens, UniProt P03951); assay: Factor XIa assay (S-2366 substrate); type: biochemical
T1 construct: 50 μL of 5 nM human Factor XIa
Experimental: (§1) The specificity of the peptide aldehydes (8 through 12) was determined in vitro by measurement of their IC50 against other enzymes involved in hemostasis. A specific concentration of enzyme and its substrate were challenged with varying concentrations of inhibitor. […] Specific assay procedures used are presented below.
(§2) 96-well microtiter plates were prepared for use in these assays by incubating each well with 300 μL 1% bovine serum albumin (in deionized water) for 30 minutes at 37° C., then washing three times with deionized water.
(§3) The substrate was made up in deionized water prior to use.

[2] = target: T2, human urokinase (Homo sapiens, UniProt P00749); assay: Urokinase assay (S-2444 substrate); type: biochemical
T2 construct: 50 μL of 270 U/mL human urokinase
Experimental: The specificity of the peptide aldehydes (8 through 12) was determined in vitro by measurement of their IC50 against other enzymes involved in hemostasis. A specific concentration of enzyme and its substrate were challenged with varying concentrations of inhibitor. IC50 is that concentration of inhibitor giving 50% inhibition of substrate turnover, under the assay conditions. Specific assay procedures used are presented below.
as §2
Enzyme activity was determined using as substrate S-2444 [L-pyroglutamyl-L-glycyl-L-arginine-p-nitroanilide hydrochloride], purchased from Kabi Diagnostica. The substrate was made up in deionized water prior to use.
The assay was run by combining in appropriate wells 50 μL inhibitor in TBS or TBS alone and 50 μL of 270 U/mL human urokinase (or TBS as background control) and 50 μL TBS, incubating this mixture for 30 minutes at room temperature, adding 50 μL 1 mM S-2444, incubating for an additional 30 minutes at room temperature, then reading the absorbance of the wells at 405 nm on a microtiter plate reader set with background substraction at 650 nm.

[3] = system: caerulein-induced pancreatitis in balb/c mice; assay: Animal model for pancreatitis: caerulein-induced pancreatitis, serum amylase; type: in vivo; details: caerulein 3 × 100 μg/kg IP, inhibitor 50 mg/kg IP, blood 4 hours after last inhibitor injection, saline + caerulein 64.4 ± 14.4, control 10.4 ± 1.6
Experimental: The efficacy of the compounds of the present invention as a prophylactic treatment for pancreatitis is assessed in vivo using the chemically-induced animal model of Niederau et al., Gastroenterology 88:1192-1204 (1985).
Pancreatitis was induced in fasting male balb/c mice weighing between 18 to 20 g by giving them three IP injections of caerulein, with each dose at 100 μg/kg body weight. The injections of each were given at two hour intervals over a 6 hour period. The ability of N-Boc-L-Asp-Pro-Arg-al (compound 9) to inhibit the induced pancreatitis was tested by injection into caerulein-treated mice. The inhibitor was dissolved into TBS, then injected IP into the mice. The first injection was given 1/4 hour prior to the caerulein treatment, then one hour after each caerulein injection. Inhibitor dose tested was 50 mg/kg body weight.
A blood serum sample was drawn and tested for amylase concentration. The blood sample was obtained by periorbital bleeding into heparized tubes 4 hours after the last injection of inhibitor. After centrifuging to remove the blood cells, the serum was the diluted 1:10 in TBS and assayed with Sigma Diagnostics Amylase reagent. The kinetic change in absorbance was measured at 405 nm for 1 minute, then was convereted into U/ml amylase activity.

[4] = target: plasmin (Homo sapiens, UniProt P00747); assay: Plasmin assay (S-2251 substrate); type: biochemical; design: 50 μL 25 nM human plasmin
Experimental: as §1, §2, §3

[5] = target: T3, human kallekrein (Homo sapiens, UniProt P03952); assay: Kallikrein assay (S-2302 substrate); type: biochemical
T3 construct: 50 μL of 4 to 9 nM human kallekrein
Experimental: as §1, §2, §3

[6] = target: recombinant tissue plasminogen activator (Homo sapiens, UniProt P00750); assay: Tissue plasminogen activator assay (S-2288 substrate); type: biochemical
[7] = 30 min preincubation, room temperature, tested 0.025-25 μM, Inact. = no inhibition at highest concentration
[8] = [IC50 for Trypsin/IC50 for other enzyme]×100, lower = more trypsin selective

T1 sequence (P03951 388-625 limits assumed): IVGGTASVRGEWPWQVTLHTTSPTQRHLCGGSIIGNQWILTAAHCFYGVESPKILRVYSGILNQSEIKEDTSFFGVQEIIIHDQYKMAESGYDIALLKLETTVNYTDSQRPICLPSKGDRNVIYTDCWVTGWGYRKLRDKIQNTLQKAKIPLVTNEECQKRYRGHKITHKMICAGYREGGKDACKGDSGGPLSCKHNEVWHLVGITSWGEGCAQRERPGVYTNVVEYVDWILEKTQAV
T1 sequence (P03951 19-387 partner limits assumed): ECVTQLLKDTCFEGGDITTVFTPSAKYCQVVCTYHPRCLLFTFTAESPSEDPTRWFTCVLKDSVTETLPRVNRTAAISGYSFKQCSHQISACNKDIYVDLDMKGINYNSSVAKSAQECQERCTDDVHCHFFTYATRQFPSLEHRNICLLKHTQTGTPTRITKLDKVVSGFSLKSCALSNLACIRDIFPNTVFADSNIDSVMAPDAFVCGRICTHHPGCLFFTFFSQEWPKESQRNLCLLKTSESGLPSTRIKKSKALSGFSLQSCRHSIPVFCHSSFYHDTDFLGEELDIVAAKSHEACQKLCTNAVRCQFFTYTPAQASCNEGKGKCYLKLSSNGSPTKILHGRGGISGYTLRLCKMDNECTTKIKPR
plasmin, sequence (P00747 581-810 limits assumed): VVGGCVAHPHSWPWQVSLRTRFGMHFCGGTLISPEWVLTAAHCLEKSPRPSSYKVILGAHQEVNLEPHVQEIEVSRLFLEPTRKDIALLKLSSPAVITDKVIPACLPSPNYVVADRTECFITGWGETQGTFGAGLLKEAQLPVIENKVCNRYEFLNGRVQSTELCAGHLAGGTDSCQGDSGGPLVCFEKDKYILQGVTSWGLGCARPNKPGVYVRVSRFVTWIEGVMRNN
plasmin, sequence (P00747 97-580 partner limits assumed): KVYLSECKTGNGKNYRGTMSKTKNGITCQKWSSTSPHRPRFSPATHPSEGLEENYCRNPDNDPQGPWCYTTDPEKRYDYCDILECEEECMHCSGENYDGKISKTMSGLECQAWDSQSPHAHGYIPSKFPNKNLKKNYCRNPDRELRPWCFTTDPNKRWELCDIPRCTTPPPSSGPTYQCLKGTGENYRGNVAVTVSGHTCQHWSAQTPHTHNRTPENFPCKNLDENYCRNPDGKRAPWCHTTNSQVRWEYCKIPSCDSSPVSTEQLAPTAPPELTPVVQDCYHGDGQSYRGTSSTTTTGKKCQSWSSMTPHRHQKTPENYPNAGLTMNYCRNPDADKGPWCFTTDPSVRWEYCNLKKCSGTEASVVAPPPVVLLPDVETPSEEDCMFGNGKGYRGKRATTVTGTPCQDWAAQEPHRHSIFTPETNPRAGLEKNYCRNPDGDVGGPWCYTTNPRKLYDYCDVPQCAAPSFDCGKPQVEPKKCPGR
T3 sequence (P03952 391-638 limits assumed): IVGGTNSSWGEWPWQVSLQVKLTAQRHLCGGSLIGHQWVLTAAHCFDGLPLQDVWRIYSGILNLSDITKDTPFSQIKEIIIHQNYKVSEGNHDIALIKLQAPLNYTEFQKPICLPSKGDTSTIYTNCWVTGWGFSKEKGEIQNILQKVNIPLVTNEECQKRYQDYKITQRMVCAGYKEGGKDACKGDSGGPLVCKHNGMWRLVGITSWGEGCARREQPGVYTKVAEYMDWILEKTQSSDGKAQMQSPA
T3 sequence (P03952 20-390 partner limits assumed): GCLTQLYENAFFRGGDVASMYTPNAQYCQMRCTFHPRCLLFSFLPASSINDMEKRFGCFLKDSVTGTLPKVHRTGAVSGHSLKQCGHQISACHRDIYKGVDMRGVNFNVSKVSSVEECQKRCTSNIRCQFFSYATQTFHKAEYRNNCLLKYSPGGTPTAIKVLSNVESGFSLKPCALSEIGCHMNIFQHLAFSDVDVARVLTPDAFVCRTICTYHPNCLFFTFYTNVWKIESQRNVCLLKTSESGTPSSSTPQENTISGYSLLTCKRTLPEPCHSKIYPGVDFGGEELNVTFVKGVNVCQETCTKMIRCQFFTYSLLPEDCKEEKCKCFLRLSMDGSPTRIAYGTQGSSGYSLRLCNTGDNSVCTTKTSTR
recombinant tissue plasminogen activator, sequence (P00750 36-562): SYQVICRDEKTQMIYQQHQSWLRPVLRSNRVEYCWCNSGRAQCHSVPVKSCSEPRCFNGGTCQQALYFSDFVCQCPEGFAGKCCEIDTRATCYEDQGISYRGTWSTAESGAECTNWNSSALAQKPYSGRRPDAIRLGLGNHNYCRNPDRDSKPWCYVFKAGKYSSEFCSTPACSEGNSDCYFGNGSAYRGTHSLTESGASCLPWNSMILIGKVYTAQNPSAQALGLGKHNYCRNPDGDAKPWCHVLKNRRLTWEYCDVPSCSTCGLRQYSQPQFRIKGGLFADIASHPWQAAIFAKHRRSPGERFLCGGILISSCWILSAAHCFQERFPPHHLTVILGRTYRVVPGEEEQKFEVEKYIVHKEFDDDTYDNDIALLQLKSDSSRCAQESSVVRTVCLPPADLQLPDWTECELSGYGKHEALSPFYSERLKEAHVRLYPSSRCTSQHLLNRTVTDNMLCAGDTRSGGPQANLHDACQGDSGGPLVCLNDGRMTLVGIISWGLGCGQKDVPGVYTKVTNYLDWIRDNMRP

Q: Which IC50 [1, 7] does the source give for `CC(C)(C)OC(=O)N[C@@H](CC(=O)O)C(=O)N1CCC[C@H]1C(=O)N[C@H](C=O)CCCNC(=N)N` [Compound 9, N-t-butyloxycarbonyl-L-Asp-L-Pro-L-argininal] (Boc-Asp-Pro-Arg-aldehyde) here?
A: The IC50 was 12 µM.

Q: What about the “Calculated % Selectivity XIa” value [1, 8] of the same compound?
A: The value was 0.12%.

Q: And the IC50 [2, 7]?
A: Its IC50 is 25 µM.

Q: What about the “Calculated % Selectivity UK” value [2, 8] of the same compound?
A: Its value is 0.06%.

Q: And the “Amylase Activity, Mean ± S.D” value [3]?
A: The value was 40.8 ± 5.2 U/ml.

Q: What about the IC50 [4, 7] of the same compound?
A: Its IC50 is 1.4 µM.

Q: And the “Calculated % Selectivity Plasmin” value [4, 8]?
A: Its value is 1%.

Q: What about the IC50 [5, 7] of the same compound?
A: Its IC50 is 17 µM.

Q: And the “Calculated % Selectivity Kallikrein” value [5, 8]?
A: The value was 0.08%.

Q: And the “IC50 tPA” value [6, 7]?
A: The value was “Inact”.

Q: What about the “Calculated % Selectivity tPA” value [6, 8] of the same compound?
A: The value was 0%.

— patent publication US5534498A, “Trypsin inhibitors” (Corvas International, Inc., priority 1993, dated 1996)
